These results are taken from patent US7589201B2, “Derivatives of 1,4-diazabicyclo[3.2.1]octanecarboxamide, preparation method thereof and use of same in therapeutics” (Sanofi-Aventis, priority 2004, dated 2009).

Counter-ions that a name gives are not always drawn. Bounds are passed on as bounds.

Test [1] deals with nicotinic receptors containing the α4β2 subunit (Rattus norvegicus, UniProt P09483+P12390). The test is described as follows: [3H]-cytisine binding to rat brain membranes, affinity for α4β2 nicotinic receptors. The settings on record: inhibition of specific binding of 1 nM [3H]-cytisine, rat whole brain membranes. As to the method: For instance, they were studied with regard to their affinity for nicotinic receptors containing the α4β2 subunit in accordance with the methods described by Anderson and Arneric in Eur. J. Pharmacol. 1994, 253, 261 and by Hall et al. in Brain Res. 1993, 600, 127. Male Sprague Dawley rats weighing 150 to 200 g are decapitated and the whole brain is removed rapidly, homogenized in 15 volumes of 0.32 M sucrose solution at […] and then centrifuged at 1000 G for 10 min. The pellet is discarded and the supernatant is centrifuged at 20,000 G at 4° C. for 20 min. The pellet is recovered and homogenized using a Polytron™ mill in 15 volumes of double-distilled water at 4° C., then centrifuged at 8,000 G for 20 min. […]
On the day of the experiment the tissue is slowly thawed and is suspended in 3 volumes of buffer. […] The reaction is stopped by filtration on Whatman GF/B™ filters pretreated with polyethyleneimine, the filters are rinsed with twice 5 ml of buffer at 4° C. and the radioactivity retained on the filter is measured by liquid scintigraphy. The non-specific binding is determined in the presence of 10 μM (−)-nicotine; the nonspecific binding represents 75% to 85% of the total binding recovered on the filter. […]

In test [2] the target is nicotinic receptors containing the α7 subunit (Rattus norvegicus, UniProt Q05941). The test is described as follows: biochemical. The test is classed as binding.
Chain of nicotinic receptors containing the α7 subunit (Q05941 23-502): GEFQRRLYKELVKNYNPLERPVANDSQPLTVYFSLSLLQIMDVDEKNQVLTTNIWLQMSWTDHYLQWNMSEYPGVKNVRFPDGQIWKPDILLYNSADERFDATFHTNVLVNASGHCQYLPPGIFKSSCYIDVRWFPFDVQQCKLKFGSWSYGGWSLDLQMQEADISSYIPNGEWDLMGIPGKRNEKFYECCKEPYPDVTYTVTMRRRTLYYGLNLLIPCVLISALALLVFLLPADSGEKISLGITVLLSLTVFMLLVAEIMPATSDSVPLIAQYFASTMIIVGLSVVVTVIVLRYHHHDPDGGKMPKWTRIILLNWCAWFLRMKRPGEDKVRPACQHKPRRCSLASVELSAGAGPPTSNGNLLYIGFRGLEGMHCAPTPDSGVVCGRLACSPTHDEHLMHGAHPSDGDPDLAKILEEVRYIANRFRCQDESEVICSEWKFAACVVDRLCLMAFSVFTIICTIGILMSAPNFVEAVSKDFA

Chain of nicotinic receptors containing the α4β2 subunit (P09483 31-630): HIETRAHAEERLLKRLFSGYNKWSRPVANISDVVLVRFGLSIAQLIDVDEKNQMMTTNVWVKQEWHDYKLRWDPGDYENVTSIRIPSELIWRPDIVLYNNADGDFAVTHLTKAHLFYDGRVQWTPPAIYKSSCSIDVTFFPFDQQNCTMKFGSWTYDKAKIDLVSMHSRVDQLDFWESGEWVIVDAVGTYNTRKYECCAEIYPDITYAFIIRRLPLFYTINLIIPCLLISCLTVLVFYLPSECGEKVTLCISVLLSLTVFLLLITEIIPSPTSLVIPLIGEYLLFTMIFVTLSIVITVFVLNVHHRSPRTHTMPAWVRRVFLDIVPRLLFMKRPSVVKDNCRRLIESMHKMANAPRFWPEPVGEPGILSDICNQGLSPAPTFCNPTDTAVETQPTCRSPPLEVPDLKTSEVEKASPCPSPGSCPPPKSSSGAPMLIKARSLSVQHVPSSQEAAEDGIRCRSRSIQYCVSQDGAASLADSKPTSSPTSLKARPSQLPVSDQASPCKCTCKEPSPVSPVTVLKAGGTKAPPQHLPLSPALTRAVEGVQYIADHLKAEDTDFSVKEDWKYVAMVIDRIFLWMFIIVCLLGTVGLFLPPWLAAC
Chain of nicotinic receptors containing the α4β2 subunit (P12390 25-500): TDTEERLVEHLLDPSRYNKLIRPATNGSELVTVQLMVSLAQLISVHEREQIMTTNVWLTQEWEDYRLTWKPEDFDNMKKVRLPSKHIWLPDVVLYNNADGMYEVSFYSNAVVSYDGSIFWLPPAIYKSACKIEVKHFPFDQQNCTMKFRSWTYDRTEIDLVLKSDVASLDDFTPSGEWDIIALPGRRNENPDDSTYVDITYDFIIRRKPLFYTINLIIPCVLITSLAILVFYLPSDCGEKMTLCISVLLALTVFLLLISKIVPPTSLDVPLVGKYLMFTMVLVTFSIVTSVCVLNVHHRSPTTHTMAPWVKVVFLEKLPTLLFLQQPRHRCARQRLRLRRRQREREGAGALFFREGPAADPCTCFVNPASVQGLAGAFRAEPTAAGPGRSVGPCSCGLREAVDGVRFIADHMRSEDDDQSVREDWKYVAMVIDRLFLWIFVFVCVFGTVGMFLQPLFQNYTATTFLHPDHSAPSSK

In the case of `Cc1ccc2c(C(=O)N3CCN4CCC3C4)n[nH]c2n1` (racemic) [Compound 1, 3-(1,4-Diazabicyclo[3.2.1]oct-4-ylcarbonyl)-6-methyl-1H-pyrazolo[3,4-b]pyridine hydrobromide 2:1], the values for the half-maximal inhibitory concentration (IC50) in test [1] and in test [2] were above 10000 nM and 56 nM, respectively.
Consider `O=C(c1n[nH]c2ccc(F)cc12)N1CCN2CCC1C2` (racemic) [Compound 4, 3-(1,4-Diazabicyclo[3.2.1]oct-4-ylcarbonyl)-5-fluoro-1H-indazole hydrobromide 2:1], for which the IC50 (as a rule, the midpoint of a concentration-inhibition curve) in test [2] was 55 nM.
